The nature of data set [1]: Glucuronidation of 1′-hydroxymyristicin, male rat liver S9. The format is in vitro ADME. How it is done: (§1) The kinetic constants for the metabolic conversion of 1′-hydroxymyristicin to 1′-hydroxymyristicin glucuronide (HMG) by both male rat and human liver fractions were determined as described previously for the related 1′-hydroxyalkenylbenzenes (Punt et al. [2008]; van den Berg et al. [2012]; Punt et al. [2009]; Martati et al. [2011], [2012]; Al-Subeihi et al. [2011], [2012]). Briefly, incubations contained (final concentrations) 10 mM of UDPGA and 0.5 mg/ml of male Sprague–Dawley or pooled gender human S9 protein in 0.2 M Tris–HCl (pH 7.4) containing 10 mM of MgCl2. To overcome enzyme latency and to obtain maximal glucuronidation activity, incubations containing S9 were pretreated on ice with 0.025 mg/ml alamethicin added from a 200 times concentrated stock dissolved in methanol (Fisher et al. [2000]; Lin and Wong [2002]). After 15 min of alamethicin treatment, samples were pre-incubated at 37 °C for 1 min, and reactions were subsequently started by adding 1′-hydroxymyristicin at final concentrations of 10 to 1200 μM. 1′-Hydroxymyristicin was added from 100 times concentrated stock solutions in DMSO. The reaction mixtures were incubated for 30 and 180 min for rat and human, respectively, and terminated by adding 25 µl (0.25 times the incubation volume) of ice-cold ACN. Blank incubations were carried out in the absence of the cofactor UDPGA. Experiments were performed in triplicate. The longer incubation time in human samples was required due to the lower rate of glucuronidation. The formation of 1′-hydroxymyristicin glucuronide was linear with time and the S9 protein concentration under the experimental conditions described. All samples were centrifuged for 5 min at 16,000×g, and the supernatant was stored at −20 °C until ultra-performance liquid chromatography (UPLC) analysis.
(§2) 1′-Hydroxymyristicin glucuronide was estimated based on the comparison of the peak area of the formed metabolite to the calibration curve of 1′-hydroxymyristicin at a wavelength of 210 nm. The flow rate was 0.6 ml/min. The gradient was made using a mixture of ACN and ultrapure water containing 0.1 % (v/v) TFA.

Data set [2] in a line: Glucuronidation of 1′-hydroxymyristicin, human liver S9. The format is in vitro ADME. How it is done:
as §1, §2

A short description of data set [3]: Oxidation of 1′-hydroxymyristicin to 1′-oxomyristicin, rat liver microsomes. In kind it is in vitro ADME. As for the experimental part: (§3) The kinetic constants for the enzymatic conversion of 1′-hydroxymyristicin to 1′-oxomyristicin were determined using incubation mixtures containing (final concentrations) 3 mM NAD^+, 2 mM GSH, and 1 mg/ml rat or human liver microsomes in 0.2 M Tris–HCl (pH 7.4). GSH was added to the incubation mixtures to trap the reactive 1′-oxo metabolite formed after oxidation of 1′-hydroxymyristicin. The level of GSH in the incubations was optimized in a previous study to obtain maximum scavenging of 1′-oxoestragole (Punt et al. [2009]). To this end, incubations were performed in the presence of increasing concentrations of GSH, ranging from 2 to 10 mM. […] Kinetic constants for this reaction in rat and human liver were derived by performing incubations with NAD^+ as a cofactor, given that in rat and human liver, NAD^+ is mainly present in an oxidized form with levels of NAD^+ being much higher than those of NADH. In a previous study, it was shown that the highest level of 1′-hydroxy alkenylbenzene oxidation occurs in incubations with microsomes in the presence of NAD^+ as cofactor. […] The enzyme responsible for the oxidation may be 17β-hydroxysteroid dehydrogenase type 2 (17β-HSD2) (Punt et al. [2010]). Prior to the addition of 1′-hydroxymyristicin at final concentrations ranging between 10 and 4000 μM to the incubation mixture from 100 times concentrated stock solutions in DMSO, samples were pre-incubated for 1 min at 37 °C. Reactions were terminated after 10 min of incubation at 37 °C by adding 25 μl (0.25 times the incubation volume) of ice-cold ACN. The formation of the GSH conjugate of 1′-oxomyristicin (GS-1′-oxomyristicin) was linear with time and microsomal protein concentration under the experimental conditions used. Blank incubations were performed without the cofactor NAD^+. Incubations were performed in triplicate. All samples were centrifuged for 5 min at 13,000×g, and the supernatant was stored at −20 °C until UPLC analysis.
(§4) Quantification of GS-1′-oxomyristicin was based on a calibration curve of the GSH adduct of the synthesized 1′-oxymyristicin made as previously described (van den Berg et al. [2012]; Punt et al. [2009]; Martati et al. [2011]; Al-Subeihi et al. [2011]). In short, a 60 μM concentration of the synthetic standard of 1′-oxomyristicin, dissolved in ACN, was incubated with different concentrations of GSH (i.e., 0–20 μM) in 0.2 M Tris–HCl (pH 7.4) for 6 h at 37 °C, resulting in full conversion of the GSH to GS-1′-oxymyristicin. Quantification was done by comparing the peak areas of the formed GS-1′-oxo metabolite in the incubation mixtures with peak areas of the GS-1′-oxymyristicin calibration curve thus obtained at a wavelength of 212 nm. The gradient for analysis of the metabolite consisted of a mixture of ACN and ultrapure water containing 0.1 % (v/v) TFA. The flow rate was 0.6 ml/min, The gradient started with 10 % ACN, increased to 30 % ACN over 2.5 min, after which ACN was increased to 80 % over 0.5 min, kept at 80 % for 0.5 min, followed by a decrease to 10 % over 0.5 min, and finally kept at 10 % for 0.5 min.

A short description of data set [4]: Oxidation of 1′-hydroxymyristicin to 1′-oxomyristicin, human liver microsomes. The format is in vitro ADME. How it is done:
as §3, §4
For orientation: Liver microsomes are vesicles of endoplasmic reticulum, rich in cytochrome P450 enzymes.

Data set [5] is described as follows: Microsomal conversion of myristicin, male rat liver microsomes. The following applies: for Vmax / In vitro catalytic efficiency: formation of the metabolite from myristicin; for Vmax: NADPH, mean of three ± SD; for In vitro catalytic efficiency: Vmax/Km × 1000; for Scaled Vmax, in vivo / In vivo catalytic efficiency: from myristicin; for Scaled Vmax, in vivo: microsomal protein yield 35 mg/g liver; for In vivo catalytic efficiency: scaled Vmax/Km. The format is in vitro ADME. As for the experimental part:
(§5) First, it was determined which organs are involved in the biotransformation of myristicin in rat and human. For this purpose, liver, kidney, lung, and small intestine microsomes from male Sprague–Dawley rat and pooled gender human were used. Incubations were performed by adding myristicin to incubation mixtures containing 1 mg/mL of the microsomal protein preparations and 3 mM NADPH in 0.2 M Tris–HCl (pH 7.4). After 1 min of pre-incubation at 37 °C, myristicin (final concentration, 1000 μM) was added from a 100 times concentrated stock solution in DMSO so that the final DMSO content was 1 % (v/v). Incubations were carried out for 30 min after which the reactions were terminated by adding 25 µl (0.25 times the incubation volume) of ice-cold ACN. Samples were centrifuged for 5 min at 13,000×g, and the supernatant was stored at −20 °C until UPLC analysis. As metabolism of myristicin was observed only in incubations with liver microsomes for male rats and pooled gender human, the determination of kinetic constants for the formation of microsomal metabolites was performed only for the liver fractions. Incubations to determine kinetic constants were performed following the conditions described above using final concentrations of myristicin from 25 to 1000 μM for rat and human liver. In all incubations, the final concentration of DMSO, in which myristicin was dissolved, was kept at 1 % (v/v). The formation of different microsomal metabolites was linear with time and microsomal protein concentration under the conditions described. Blank incubations were performed in the absence of the cofactor NADPH. All incubations were performed in triplicate.
(§6) Secondary metabolism of the relevant 1′-hydroxy metabolite of myristicin was taken into account by determining the kinetic constants for its conversion in (a) glucuronidation, (b) sulfation, and (c) oxidation, again under conditions that allowed adequate definition of kinetic constants and with <10 % substrate conversion. Incubation samples were subjected to UPLC analysis that was performed as described previously (Punt et al. [2008]). Identification was achieved by comparing the UV spectra of the formed metabolites to the spectra of the synthesized 1′-hydroxymyristicin and 1′-oxomyristicin reference standards. Quantification of all formed metabolites was done by comparing the peak areas to those of calibration curves of the corresponding reference compounds, determined using UPLC with photodiode array detection (UPLC-PDA). The UPLC system was composed of a Waters (Waters, Milford, MA) Acquity solvent manager, sample manager, and photodiode array detector, equipped with Water Acquity UPLC BEH C18 column.
(§7) The gradient for analysis of microsomal metabolites was performed with 100 % ACN and ultrapure water containing 0.1 % (v/v) TFA. The flow rate was 0.6 ml/min. The gradient started at 10 % ACN, increased to 50 % ACN over 4 min, increased to 80 % over 0.5 min, followed by decrease to 10 % ACN over 0.5 min, and finally kept at 10 % for 1 min.

Data set [6] in a line: Microsomal conversion of myristicin, human liver microsomes. The format is in vitro ADME. The conditions noted are these: for Vmax / In vitro catalytic efficiency: formation of the metabolite from myristicin; for Vmax: NADPH, mean of three ± SD; for In vitro catalytic efficiency: Vmax/Km × 1000; for Scaled Vmax, in vivo / In vivo catalytic efficiency: from myristicin; for Scaled Vmax, in vivo: microsomal protein yield 32 mg/g liver; for In vivo catalytic efficiency: scaled Vmax/Km. As for the experimental part:
as §5, §6, §7

For another data set, the system named is DNA. The conditions noted are these: ref Zhou et al. [2007a]; Kobets et al. [2016]; Phillips et al. [1984]; Randerath et al. [1984]; cited from earlier work.
The subject of data set [7] is freshly isolated rat hepatocytes in primary culture. The following applies: 10^−6 to 10^−3 M; ref Howes et al. [1990]; cited from earlier work.
Where [8] appears, read: 1′-hydroxymyristicin to its glucuronide, S9, UDPGA.
Where [9] appears, read: 1′-hydroxymyristicin to its glucuronide, Vmax/Km.
Setting [10] is: glucuronidation of 1′-hydroxymyristicin, S9 protein yield 143 mg/g liver.
Where [11] appears, read: glucuronidation of 1′-hydroxymyristicin, scaled Vmax/Km.
[12] abbreviates: 1′-hydroxymyristicin to 1′-oxomyristicin, Vmax/Km.
Where [13] appears, read: 1′-hydroxymyristicin to 1′-oxomyristicin, microsomes, NAD+, GSH trapping.
Where [14] appears, read: oxidation of 1′-hydroxymyristicin, scaled Vmax/Km.

Each structure is given as a SMILES string.

The term Km denotes the concentration of substrate that gives half-maximal velocity.

For the compound `C=CC(OC1OC(C(=O)O)C(O)C(O)C1O)c1cc(OC)c2c(c1)OCO2` (stereo not shown) [1′-Hydroxymyristicin glucuronide, 1′-hydroxymyristicin glucuronide], the figures for the Vmax in data set [1] (setting [8]) and in data set [2] (setting [8]) were 8.6 ± 2.0 nmol min^−1 (mg microsomal or S9 protein)^−1 and 0.08 ± 0.03 nmol min^−1 (mg microsomal or S9 protein)^−1, respectively. In addition, the “In vitro catalytic efficiency” value was 10.287 μl min^−1 (mg microsomal or S9 protein)^−1 in data set [1] (setting [9]) and 0.025 μl min^−1 (mg microsomal or S9 protein)^−1 in data set [2] (setting [9]). Moreover, the figures for the “Scaled Vmax, in vivo” value in data set [1] (setting [10]) and in data set [2] (setting [10]) were 73.788 μmol/h/g tissue and 0.6864 μmol/h/g tissue, respectively. Further, the entries for the “In vivo catalytic efficiency” value in data set [1] (setting [11]) and in data set [2] (setting [11]) were 0.0883 ml/h/g tissue and 0.0002 ml/h/g tissue, respectively. Besides, in data set [1] (male, Sprague-Dawley, rat, pH 7.4), the Michaelis constant (Km) at 30 min came to 836 ± 336 µM. For the same compound, the Km at 180 min in data set [2] (both sexes, human, pH 7.4) was 3140 ± 2430 µM.

On to `C=CC(=O)c1cc(OC)c2c(c1)OCO2` [1′-Oxomyristicin, 1′-oxomyristicin], for which the figures for the “In vitro catalytic efficiency” value in data set [3] (setting [12]) and in data set [4] (setting [12]) were 7.369 μl min^−1 (mg microsomal or S9 protein)^−1 and 9.864 μl min^−1 (mg microsomal or S9 protein)^−1, respectively. For the same compound, the results for the Vmax in data set [3] (setting [13]) and in data set [4] (setting [13]) were 43.64 ± 20.9 nmol min^−1 (mg microsomal or S9 protein)^−1 and 32 ± 14 nmol min^−1 (mg microsomal or S9 protein)^−1, respectively. For the same compound, the “Scaled Vmax, in vivo” value in data set [3] (oxidation of 1′-hydroxymyristicin, microsomal protein yield 35 mg/g liver) came out at 91.644 μmol/h/g tissue; in data set [4] (oxidation of 1′-hydroxymyristicin, microsomal protein yield 32 mg/g liver), 61.44 μmol/h/g tissue. Also, the results for the “In vivo catalytic efficiency” value in data set [3] (setting [14]) and in data set [4] (setting [14]) were 0.0155 ml/h/g tissue and 0.0189 ml/h/g tissue, respectively.

For the compound `COc1cc(CC(O)CO)cc2c1OCO2` (stereo not shown) [2′,3′-Dihydroxymyristicin], in data set [5], the Vmax is given as 0.44 ± 0.08 nmol min^−1 (mg microsomal or S9 protein)^−1; the “In vitro catalytic efficiency” value is 27.5 μl min^−1 (mg microsomal or S9 protein)^−1; the “Scaled Vmax, in vivo” value came to 0.924 μmol/h/g tissue; the “In vivo catalytic efficiency” value is reported as 0.0578 ml/h/g tissue. In data set [6], the Vmax is given as 0.08 ± 0.01 nmol min^−1 (mg microsomal or S9 protein)^−1; the “In vitro catalytic efficiency” value is recorded as 2.424 μl min^−1 (mg microsomal or S9 protein)^−1; the “Scaled Vmax, in vivo” value turned out to be 0.154 μmol/h/g tissue; the “In vivo catalytic efficiency” value is given as 0.0047 ml/h/g tissue.

As to `COc1cc(/C=C/CO)cc2c1OCO2` [3′-Hydroxymyristicin, 3′-hydroxymyristicin], in data set [5], the Vmax is recorded as 0.47 ± 0.09 nmol min^−1 (mg microsomal or S9 protein)^−1; the “In vitro catalytic efficiency” value was 5.663 μl min^−1 (mg microsomal or S9 protein)^−1; the “Scaled Vmax, in vivo” value turned out to be 0.987 μmol/h/g tissue; the “In vivo catalytic efficiency” value is on record as 0.0119 ml/h/g tissue. Further, in data set [6], the Vmax is given as 0.29 ± 0.14 nmol min^−1 (mg microsomal or S9 protein)^−1; the “In vitro catalytic efficiency” value is on record as 0.178 μl min^−1 (mg microsomal or S9 protein)^−1; the “Scaled Vmax, in vivo” value was 0.557 μmol/h/g tissue; the “In vivo catalytic efficiency” value worked out at 0.0003 ml/h/g tissue.

Regarding `C=CCc1ccc(OC)cc1` [estragole], the “DNA adduct formation, result” value with DNA is recorded as “positive results”.

For the compound `C=CCc1ccc(OC)c(OC)c1` [methyleugenol], the “unscheduled DNA synthesis (UDS)” value in data set [7] is given as “induced unscheduled DNA synthesis (UDS)”. In addition, the “DNA adduct formation, result” value in the data set with DNA is listed as “positive results”.

(Values after paper PMC5306082, “Physiologically based kinetic modeling of the bioactivation of myristicin” (Archives of Toxicology, 2016).)
